Values of other authors as cited in US20240130675A1, “Methods for Treating Autism Spectrum Disorder” (The General Hospital Corporation, priority 2021, published 2024).
Counter-ions that a name gives are not always drawn.

Legend:
ASD = settings: in vivo; cited from earlier work
[1] = test system: older adolescents and young adults with ASDs; settings: cited from earlier work
ASD children = settings: cited from earlier work
youth with ASD = settings: cited from earlier work
ASD symptoms [2] = settings: 5-19 year-olds, four weeks; only reflected in CGI, not in ABC-CV; cited from earlier work
ASD symptoms [3] = settings: RCT; cited from earlier work
autism = settings: RUPP Autism Network study; cited from earlier work

For N[C@@H]1CONC1=O [D-Cycloserine], the “Social Responsiveness Scale and Aberrant Behavior Checklist” value (ASD) is given as “statistically and clinically significant improvement” and the “Stereotypic symptoms, Aberrant Behavior Checklist subscale 3” value [1] is given as “improved stereotypic symptoms”.

In the case of CC(=O)N[C@@H](CS)C(=O)O [NAC, N-Acetylcysteine], the “ABC irritability subscale score vs placebo” value (ASD children) is given as “significant improvement” and the Social impairment (youth with ASD) is given as “no significant impact on social impairment”.

For NC12CC3CC(CC(C3)C1)C2 [amantadine hydrochloride], the “ASD symptoms vs placebo” value (ASD symptoms [2]) is listed as “improvement in ASD symptoms”.

For Nc1nnc(-c2cccc(Cl)c2Cl)c(N)n1 [lamotrigine], the “Improvements vs placebo on Autism Behavior Checklist, Aberrant Behavior Checklist, Vineland, PL-ADOS, CARS” value (ASD symptoms [3]) is given as “no significant differences in improvements”.

For Cc1nc2n(c(=O)c1CCN1CCC(c3noc4cc(F)ccc34)CC1)CCCC2 [risperidone], the “Response rate, treatment group” value (autism) is given as 69.4%.
